Laboratory results as given in patent US5674872A, “Treatment of ovarian cancer” (SmithKline Beecham Corporation, priority 1995, dated 1997).

Legend:
[1] = Stability of diluted topotecan in a hang-bag; assay type: physicochemical; conditions: 24 hours
Procedure: Topotecan diluted in saline (10 ug/ml or 500 ug/ml) or dextrose (6.7 ug/ml or 330 ug/ml) is stable in a hang-bag for 24 hours with at least 95% recovery.

ovarian cancer = assay: Treatment of a human patient with ovarian cancer, tumor size regression evaluated by CAT scan; assay type: in vivo; conditions: one platinum-refractory patient, 1.5 mg/m^2/day i.v. for five consecutive days, sustained at least until the tenth treatment
Procedure: One human patient with ovarian cancer, who was refractory to two previous platinum-containing regimens (i.e., cisplatin-cyclophosphamide combination regimen and treatment with single agent carboplatin), received a course of therapy comprising intravenous administration of 1.5 mg of topotecan/m^2 of body surface area per day for five consecutive days. This course of therapy was repeated […] nine more times to date at twenty-one day intervals (from the date of initiation of therapy) for a total of ten treatments. Tumor size regression was evaluated by CAT (computerized axial tomography) scan. […] At least until the tenth treatment, this clinically significant response was sustained, i.e., a greater than fifty percent (50%) tumor size regression was obtained.

[2] = Stability of diluted topotecan solutions in plastic bags at room temperature; assay type: physicochemical
Procedure: Solution Preparation--When the 5 mg vial is reconstituted with 2 ml of Sterile Water for Injection, USP, each ml will contain 2.5 mg of topotecan as the base and 50 mg of mannitol, USP. Topotecan must not be diluted or mixed with buffered solutions because of solubility and stability considerations.
Stability--Shelf life surveillance of the intact vials is ongoing. Because the single-use lyophilized dosage form contains no antibacterial preservatives, it is advised that the reconstituted solution be discarded eight hours after initial entry into the vial. Futher dilutions of the reconstituted solution to concentrations of 0.02 mg/ml and 0.1 mg.ml in 5% Dextrose Injection, USP, ("D5W") or 0.9% Sodium Chloride Injection, USP, ("NS") in plastic bags stored at room temperature yielded the following stability results: […]

CC[C@@]1(O)C(=O)OCc2c1cc1n(c2=O)Cc2cc3c(CN(C)C)c(O)ccc3nc2-1 [Topotecan, (S)-10[(dimethylamino)methyl]-4-ethyl-4,9-dihydroxy-1 H-pyrano[3',4':6,7]indolizino[1,2-b]quinolone-3,14(4 H,12 H)-dione]
recovery (stable in a hang-bag) ([1]; dextrose, 6.7 ug/ml or 330 ug/ml): at least 95% | recovery (stable in a hang-bag) ([1]; saline, 10 ug/ml or 500 ug/ml): at least 95% | tumor size regression, sustained (ovarian cancer): > 50% | Percentage of Initial Topotecan Remaining in Solution ([2]; D5W, 0.02 mg/ml, 0 hrs): 100.00% | Percentage of Initial Topotecan Remaining in Solution ([2]; D5W, 0.02 mg/ml, 6 hrs): 99.29% | Percentage of Initial Topotecan Remaining in Solution ([2]; D5W, 0.02 mg/ml, 24 hrs): 102.30% | Percentage of Initial Topotecan Remaining in Solution ([2]; D5W, 0.02 mg/ml, 48 hrs): 101.98% | Percentage of Initial Topotecan Remaining in Solution ([2]; D5W, 0.1 mg/ml, 0 hrs): 100.00% | Percentage of Initial Topotecan Remaining in Solution ([2]; D5W, 0.1 mg/ml, 6 hrs): 99.68% | Percentage of Initial Topotecan Remaining in Solution ([2]; D5W, 0.1 mg/ml, 24 hrs): 98.16% | Percentage of Initial Topotecan Remaining in Solution ([2]; D5W, 0.1 mg/ml, 48 hrs): 97.91% | Percentage of Initial Topotecan Remaining in Solution ([2]; NS, 0.02 mg/ml, 0 hrs): 100.00% | Percentage of Initial Topotecan Remaining in Solution ([2]; NS, 0.02 mg/ml, 6 hrs): 98.58% | Percentage of Initial Topotecan Remaining in Solution ([2]; NS, 0.02 mg/ml, 24 hrs): 96.01% | Percentage of Initial Topotecan Remaining in Solution ([2]; NS, 0.02 mg/ml, 48 hrs): 102.03% | Percentage of Initial Topotecan Remaining in Solution ([2]; NS, 0.1 mg/ml, 0 hrs): 100.00% | Percentage of Initial Topotecan Remaining in Solution ([2]; NS, 0.1 mg/ml, 6 hrs): 97.71% | Percentage of Initial Topotecan Remaining in Solution ([2]; NS, 0.1 mg/ml, 24 hrs): 98.30% | Percentage of Initial Topotecan Remaining in Solution ([2]; NS, 0.1 mg/ml, 48 hrs): 98.35%
